Patent US9393292B2, “Methods for inducing selective apoptosis” (priority 2010, dated 2016)
Residues, ends and D or L forms follow the SMILES beside them. *: point of attachment. Cbz = O=C(OCc1ccccc1)*; CH2F = FC*

Legend:
[1] = tested on: iCasp9M.IRES.GFPhigh-transduced CTLs; assay: SCID mouse-human xenograft model: human CD3+/GFP+ T cells in tumors after CID; assay type: in vivo; conditions: single dose of CID (50 μg AP20187 intraperitoneally); tumors analyzed three days later; versus carrier; listed as dimerizer
iCasp9-transduced MSCs = assay: Apoptosis of undifferentiated iCasp9-transduced MSCs after CID (annexin V-PE/7-AAD FACS); assay type: cell-based, human
Method: Undifferentiated MSCs. The chemical inducer of dimerization (CID) (AP20187; ARIAD Pharmaceuticals, Cambridge, Mass.) was added at 50 nM to iCasp9-transduced MSCs cultures in complete medium. Apoptosis was evaluated 24 hours later by FACS analysis, after cell harvest and staining with annexin V-PE and 7-AAD in annexin V binding buffer (BD Biosciences, San Diego, Calif.). Control iCasp9-transduced MSCs were maintained in culture without exposure to CID.

[2] = tested on: iCasp9-ΔCD19-transduced MSCs; assay: In vivo killing of iCasp9-transduced MSCs in SCID mice (luminescence imaging, qPCR); parameters: species or system mouse
[3] = tested on: EBV-specific and CMV-specific T cells; assay: Pentamer analysis of virus-specific T cells after AP20187 treatment of allostimulated cells; assay type: cell-based, human; conditions: 3 weeks post transduction; 4 days allogeneic PBMC; 10 nM AP20187
Method: In some experiments, cells also were cultured for 3 weeks post transduction and stimulated with 30G-irradiated allogeneic PBMC at a responder:stimulator ratio of 1:1. After 4 days of co-culture, a portion of cells was treated with 10 nM AP20187. Killing was measured by annexin V/7-AAD staining at 24 hours, and the effect of dimerizer on bystander virus-specific T cells was assessed by pentamer analysis on AP20187-treated and untreated cells.
An observation of note was that many virus-specific T cells were spared when dimerizer was used to deplete gene-modified cells that have been re-activated with allogeneic PBMC, rather than by non-specific mitogenic stimuli. […] Gene-modified allodepleted cells were maintained in culture for 3 weeks post-transduction to allow transgene down-modulation. Cells were stimulated with allogeneic PBMC for 4 days, following which a portion was treated with 10 nM AP20187. The frequency of EBV-specific T cells (see FIG. 14A) and CMV-specific T cells (see FIG. 14B) were quantified by pentamer analysis before allostimulation, after allostimulation, and after treatment of allostimulated cells with dimerizer. The percentage of virus-specific T cells decreased after allostimulation. Following treatment with dimerizer, virus-specific T cells were partially and preferentially retained.

non-transduced cells = assay: Viability of non-transduced cells with AP20187; assay type: cell-based, human; conditions: non-transduced cells (n=6)
Method: (§1) Suicide gene functionality was assessed by adding a small molecule synthetic homodimerizer, AP20187 (Ariad Pharmaceuticals; Cambridge, Mass.), at 10 nM final concentration the day following CD19 immunomagnetic selection. Cells were stained with annexin V and 7-amino-actinomycin (7-AAD)(BD Pharmingen) at 24 hours and analyzed by flow cytometry. Cells negative for both Annexin V and 7-AAD were considered viable, cells that were annexin V positive were apoptotic, and cells that were both annexin V and 7-AAD positive were necrotic. The percentage killing induced by dimerization was corrected for baseline viability as follows: Percentage killing=100%−(% Viability in AP20187-treated cells÷% Viability in nontreated cells).
The day following immunomagnetic selection, 10 nM of the chemical inducer of dimerization, AP20187, was added to induce apoptosis, which appeared within 24 hours. […] Killing efficiency after correction for baseline viability was about 92.9%±3.8%. Large-scale CD19 selection produced cells that were killed with similar efficiency as small-scale selection: mean viability with and without AP20187, and percentage killing, in large and small scale were about 3.9%, about 84.0%, about 95.4% (n=3) and about 6.6%, about 79.3%, about 91.4% (n=5) respectively. […]

[4] = tested on: iCasp9M.IRES.IL-12-transduced cells; assay: IL-12 ELISA of culture supernatant of iCasp9M.IRES.IL-12-transduced EBV-CTLs after CID; assay type: cell-based, human; conditions: after 10 nM CID; detection limit 7.8 pg/mL
[5] = tested on: gene-modified allodepleted cells; assay: Induction of apoptosis with AP20187 in gene-modified allodepleted cells (annexin V/7-AAD); assay type: cell-based, human
Method: as §1
Cells were maintained in T cell medium containing 50 U/ml IL-2 until 22 days after transduction. A portion of cells was reactivated on 24-well plates coated with […] OKT3 and 1 μg/ml anti-CD28 (Clone CD28.2, BD Pharmingen, San Jose, Calif.) for 48 to 72 hours. CD19 expression and suicide gene function in both reactivated and non-reactivated cells were measured on day 24 or 25 post transduction.

CD3+CD19+ T cells = assay: In vitro exposure to AP1903 of patient CD3+CD19+ T cells 5 months after treatment; assay type: cell-based, human; conditions: patient 2, FACS and quantitative PCR
[6] = cited from earlier work
[7] = tested on: F-Casp9M.I.GFPhigh-transduced T cells; assay: Annexin-V/7-AAD staining and microscopy of F-Casp9M.I.GFPhigh-transduced T cells after CID; assay type: cell-based, human; conditions: zVAD-fmk 100 μM for 1 hour prior to adding CID
[8] = two injections of 50 μg of CID 24 hours apart, seven days after implantation

CC[C@H](C(=O)N1CCCC[C@H]1C(=O)O[C@H](CCc1ccc(OC)c(OC)c1)c1cccc(OCC(=O)NCC(CNC(=O)COc2cccc([C@@H](CCc3ccc(OC)c(OC)c3)OC(=O)[C@@H]3CCCCN3C(=O)[C@@H](CC)c3cc(OC)c(OC)c(OC)c3)c2)CN(C)C)c1)c1cc(OC)c(OC)c(OC)c1 [AP20187]
reduction in the number of human CD3+/GFP+ T cells [1]: more than 99% | annexin positive, iCasp9-CD19-positive cells (iCasp pos/CID) (iCasp9-transduced MSCs; 50 nM CID, 24 hours, FACS example): Ninety-three | selected cells apoptotic after exposure to CID (iCasp9-transduced MSCs; magnetic immunoselection of iCasp9-CD19-positive cells): More than 95% | killing / depletion of iCasp9-positive cells (qPCR) ([2]; 1:1 mixture of doubly and singly transduced MSCs, two doses of CID): > 99% | proportion of surviving iCasp9-positive cells ([2]; mouse, in vivo): 0.7 % of the original population | luminescence signal of MSCs transduced with iCasp9 [2, 8]: quickly killed | luminescence signal of cells negative for iCasp9 [2, 8]: not affected | viral reactive subpopulations (HLA pentamers, EBV and CMV) [3]: spares (and thereby enriches) viral reactive subpopulations | viability with AP20187 (non-transduced cells): about 86%±9% | IL-12 in the supernatant [4]: < 7.8 pg/mL | cells remaining viable ([5]; 10 nM AP20187, day after CD19 selection, 24 hours): about 5.5%±2.5% | apoptosis / elimination of iCasp9-modified T cells after dimerizer (summary statements) ([5]; listed as small-molecule dimerizer): > 90%

CC[C@H](C(=O)N1CCCC[C@H]1C(=O)O[C@H](CCc1ccc(OC)c(OC)c1)c1cccc(OCC(=O)NCCNC(=O)COc2cccc([C@@H](CCc3ccc(OC)c(OC)c3)OC(=O)[C@@H]3CCCCN3C(=O)[C@@H](CC)c3cc(OC)c(OC)c(OC)c3)c2)c1)c1cc(OC)c(OC)c(OC)c1 (relative stereo) [AP1903, 2-Piperidinecarboxylic acid, 1-[(2S)-1-oxo-2-(3,4,5-trimethoxyphenyl)butyl]-, 1,2-ethanediylbis[imino(2-oxo-2,1-ethanediyl)oxy-3,1-phenylene[(1R)-3-(3,4-dimethoxyphenyl)propylidene]]ester, [2S-[1(R*),2R[S[S*[1(R*),2R*]]]]]-(9Cl)]
sensitivity of CD3+CD19+ cells to AP1903 in vitro (CD3+CD19+ T cells): retain sensitivity | mean Cmax / maximal plasma level ([6]; 0.01-1.0 mg/kg dose range, IV infusion over 2 hours): 10 to 1275 ng/mL | plasma levels versus dose ([6]; 0.01-1.0 mg/kg): directly proportional to dose | adverse event considered possibly related to AP1903 ([6]; 1 volunteer at 1.0 mg/kg, 3 minutes after start of infusion, resolved after 32 minutes): vasodilatation | serious adverse events ([6]; Phase 1 study in volunteers): No serious adverse events | incidence of adverse events ([6]; following each treatment, all mild in severity): very low

COC(=O)C[C@H](NC(=O)[C@H](C)NC(=O)[C@@H](NC(=O)OCc1ccccc1)C(C)C)C(=O)CF [zVAD-fmk] (Cbz-Val-Ala-Asp(OMe)-CH2F)
CID-induced apoptosis [7]: inhibited
